# Test results taken from patent publication US20170334899A1, “AMINO-SUBSTITUTED ISOTHIAZOLES” (Bayer Pharma Aktiengesellschaft, priority 2014, published 2017).
# Values joined by “and” are separate entries in the source; they are usually repeats but may differ in a detail not shown here. Identical values can stand only once.
# Biological target: T1, human kinase Mps-1 (Homo sapiens, UniProt P33981)
# T1 construct: N-terminally GST-tagged human full length recombinant Mps-1 kinase; GST (N); purchased Invitrogen, Karslruhe, Germany PV4071
# T1 sequence (P33981 1-857): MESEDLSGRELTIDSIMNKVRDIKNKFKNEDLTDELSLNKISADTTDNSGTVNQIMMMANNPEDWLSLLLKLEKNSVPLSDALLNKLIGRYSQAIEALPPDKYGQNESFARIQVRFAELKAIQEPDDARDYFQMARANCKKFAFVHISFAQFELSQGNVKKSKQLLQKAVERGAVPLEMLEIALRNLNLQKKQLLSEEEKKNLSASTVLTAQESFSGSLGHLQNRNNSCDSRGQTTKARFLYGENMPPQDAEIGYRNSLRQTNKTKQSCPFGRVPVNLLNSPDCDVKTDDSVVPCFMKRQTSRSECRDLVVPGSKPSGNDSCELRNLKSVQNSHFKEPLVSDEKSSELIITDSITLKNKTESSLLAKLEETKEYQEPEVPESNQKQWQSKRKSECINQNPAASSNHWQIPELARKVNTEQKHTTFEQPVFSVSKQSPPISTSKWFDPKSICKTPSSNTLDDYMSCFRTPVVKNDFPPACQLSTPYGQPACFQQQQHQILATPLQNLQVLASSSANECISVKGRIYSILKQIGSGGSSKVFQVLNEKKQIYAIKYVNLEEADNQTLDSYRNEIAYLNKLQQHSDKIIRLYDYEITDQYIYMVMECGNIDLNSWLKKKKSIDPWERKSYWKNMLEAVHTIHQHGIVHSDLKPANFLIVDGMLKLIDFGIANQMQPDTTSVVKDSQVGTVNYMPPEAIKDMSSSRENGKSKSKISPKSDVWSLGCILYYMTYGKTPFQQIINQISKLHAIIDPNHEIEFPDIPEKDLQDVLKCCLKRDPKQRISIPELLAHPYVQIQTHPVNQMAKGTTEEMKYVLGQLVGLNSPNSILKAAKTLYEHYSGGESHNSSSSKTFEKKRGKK
# Test: Mps-1 kinase assay (TR-FRET)
# Type: biochemical
# Conditions: Mps-1 TR-FRET kinase assay; avg; read-out: Mps1 avg (IC50 [mol/l])
# In short: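 GST-tagged full-length recombinant human Mps-1 (~0.5 nM) pre-incubated 15 min with compound, then reacted 60 min at 22 °C with 10 μM ATP and 1 μM biotinylated peptide in Hepes pH 7.7 buffer. EDTA-stopped; TR-FRET (Eu anti-phospho-Ser/Thr to SA-XLent) 665/620 nm ratio normalised to no-inhibitor and no-enzyme controls.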
row,Compound,IC50
1,"Cc1nsc(Nc2cnc3ccccc3n2)c1C(=O)Nc1cccc(NC(=O)C(F)(F)F)c1 [Example 432, 3-Methyl-5-(quinoxalin-2-ylamino)-N-{3-[(trifluoroacetyl)amino]phenyl}-1,2-thiazole-4-carboxamide]",> 20 µM
2,"Cc1nsc(Nc2ccc(C#N)cn2)c1C(=O)Nc1ccc(Nc2ccc(F)c(F)c2)nc1 [Example 433, 5-[(5-Cyanopyridin-2-yl)amino]-N-{6-[(3,4-difluorophenyl)amino]pyridin-3-yl}-3-methyl-1,2-thiazole-4-carboxamide]",> 20 µM
3,"Cc1nsc(Nc2cnc3ccccc3n2)c1C(=O)Nc1ccc(NCCN(C)C(=O)OC(C)(C)C)nc1 [Example 434, tert-Butyl methyl(2-{[5-({[3-methyl-5-(quinoxalin-2-ylamino)-1,2-thiazol-4-yl]carbonyl}amino)pyridin-2-yl]amino}ethyl)carbamate]",> 20 µM and 19 µM
4,"CC(=O)Nc1ccc(NC(=O)c2c(C)nsc2Nc2ccc(C#N)cn2)cn1 [Example 435, N-(6-Acetamidopyridin-3-yl)-5-[(5-cyanopyridin-2-yl)amino]-3-methyl-1,2-thiazole-4-carboxamide]",> 20 µM

# The remaining lines, values ahead:
row,IC50,Compound
1,> 20 µM,"Cc1nsc(Nc2cncc(C(F)(F)F)n2)c1C(=O)Nc1ccc(OCCN(C)C(=O)OC(C)(C)C)nc1 [Example 430, tert-Butyl methyl{2-[(5-{[(3-methyl-5-{[6-(trifluoromethyl)pyrazin-2-yl]amino}-1,2-thiazol-4-yl)carbonyl]amino}pyridin-2-yl)oxy]ethyl}carbannate]"
2,> 20 µM,"Cc1nsc(Nc2cnc(C(F)(F)F)cn2)c1C(=O)Nc1ccc(OC2CCNCC2)c(F)c1 [Example 431, N-[3-Fluoro-4-(piperidin-4-yloxy)phenyl]-3-methyl-5-{[5-(trifluoromethyl)pyrazin-2-yl]amino}-1,2-thiazole-4-carboxamide]"
